Here are results for 14 compounds from patent US8791132B2, “Compounds and methods for treatment of hypertension” (Medivation Technologies, Inc., priority 2011, dated 2014).

pKi: −log10 of the molar value. Several values for one entry are separate records, joined by “and”; a condition that tells them apart may be missing. Identical values can stand only once. Like-named read-outs stand apart in the source and are kept apart here.

Test [1] has as its target T1, human recombinant adrenergic α2B receptor (Homo sapiens, UniProt P18089).
T1 construct: expressed in transfected cells; host or cells: CHO-K1
T1 sequence (P18089 1-450): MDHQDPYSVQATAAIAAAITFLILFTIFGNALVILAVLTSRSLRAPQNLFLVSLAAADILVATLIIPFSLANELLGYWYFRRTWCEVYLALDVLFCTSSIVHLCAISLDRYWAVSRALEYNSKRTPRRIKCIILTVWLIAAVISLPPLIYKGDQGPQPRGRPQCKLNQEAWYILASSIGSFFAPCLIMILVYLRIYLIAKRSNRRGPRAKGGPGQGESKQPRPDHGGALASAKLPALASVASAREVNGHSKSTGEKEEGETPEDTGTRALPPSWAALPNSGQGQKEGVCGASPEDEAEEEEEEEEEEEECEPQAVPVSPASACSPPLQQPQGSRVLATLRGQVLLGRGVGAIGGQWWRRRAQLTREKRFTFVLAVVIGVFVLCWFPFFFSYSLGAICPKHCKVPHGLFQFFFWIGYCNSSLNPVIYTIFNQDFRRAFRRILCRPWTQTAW
Nature of the test: Radioligand binding, adrenergic α2B ([3H]Rauwolscine). The conditions noted are these: for Percentage inhibition of ligand binding, Adrenergic α2B (0.03 μM) / Percentage inhibition of ligand binding, Adrenergic α2B: 0.03 µM; for pKi: read-out: Ki α2B. The method, boiled down:
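Membranes from CHO-K1 cells expressing human recombinant α2B, in 50 mM Tris-HCl pH 7.4, 12.5 mM MgCl2, 1 mM EDTA, 0.2% BSA, incubated with compound and 2.5 nM [3H]Rauwolscine, 60 min, 25 °C.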

Test [2] addresses T2, human recombinant adrenergic α2A receptor (Homo sapiens, UniProt P08913).
T2 construct: expressed in transfected cells; host or cells: insect Sf9 cells
T2 sequence (P08913 1-465): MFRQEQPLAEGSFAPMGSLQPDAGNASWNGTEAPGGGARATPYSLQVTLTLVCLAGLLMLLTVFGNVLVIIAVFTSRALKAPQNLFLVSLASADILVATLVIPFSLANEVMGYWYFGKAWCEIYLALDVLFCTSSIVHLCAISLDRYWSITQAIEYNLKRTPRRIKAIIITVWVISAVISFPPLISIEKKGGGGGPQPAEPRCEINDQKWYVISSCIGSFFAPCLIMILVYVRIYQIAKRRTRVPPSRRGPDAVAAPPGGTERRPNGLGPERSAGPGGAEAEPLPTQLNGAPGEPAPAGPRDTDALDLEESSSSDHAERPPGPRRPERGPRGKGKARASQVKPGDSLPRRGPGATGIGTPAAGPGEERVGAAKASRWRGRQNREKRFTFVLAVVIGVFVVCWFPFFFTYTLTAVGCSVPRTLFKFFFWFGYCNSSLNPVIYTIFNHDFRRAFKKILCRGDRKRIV
Nature of the test: Radioligand binding, adrenergic α2A ([3H]MK-912). Conditions: for Percentage inhibition of ligand binding, Adrenergic α2A (0.1 μM) / Percentage inhibition of ligand binding, Adrenergic α2A: 0.1 µM. In short, it runs like this: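 Sf9 membranes, 1 nM [3H]MK-912, 60 min, 25 °C, Tris-HCl pH 7.4/MgCl2/EDTA buffer. NSB: 10 μM WB-4101. Filtration, counting; % inhibition of specific binding.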

In test [3] the target is T3, rat adrenergic α1B receptor (Rattus norvegicus, UniProt P15823).
T3 construct: rat adrenergic α1B receptor obtained from Wistar Rat liver; from tissue; host or cells: Wistar rat liver
T3 sequence (P15823 1-515): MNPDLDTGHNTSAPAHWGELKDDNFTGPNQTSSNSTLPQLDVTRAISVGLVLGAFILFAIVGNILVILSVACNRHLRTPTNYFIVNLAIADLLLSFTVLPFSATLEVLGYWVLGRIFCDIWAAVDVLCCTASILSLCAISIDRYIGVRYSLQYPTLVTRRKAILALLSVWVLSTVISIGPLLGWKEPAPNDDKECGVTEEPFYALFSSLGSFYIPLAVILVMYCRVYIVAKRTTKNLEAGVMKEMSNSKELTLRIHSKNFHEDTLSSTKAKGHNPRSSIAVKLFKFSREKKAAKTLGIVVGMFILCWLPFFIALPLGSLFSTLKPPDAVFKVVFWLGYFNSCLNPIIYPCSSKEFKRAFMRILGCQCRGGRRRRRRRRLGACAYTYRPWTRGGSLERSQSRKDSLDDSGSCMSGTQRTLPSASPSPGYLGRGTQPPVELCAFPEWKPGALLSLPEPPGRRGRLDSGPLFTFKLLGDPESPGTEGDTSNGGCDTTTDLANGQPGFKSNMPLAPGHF
Nature of the test: Radioligand binding, adrenergic α1B ([3H]Prazosin). Conditions: for Percentage inhibition of ligand binding, Adrenergic α1B (0.1 μM) / Percentage inhibition of ligand binding, Adrenergic α1B: 0.1 µM; for inhibition at 0.1 µM: read-out: Percentage inhibition of ligand binding, Adrenergic α1B (0.1 μM), compound at 0.1 μM. The method, boiled down:
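Specific binding, taken as total minus that remaining with 10 μM phentolamine, is measured after filtration and counting. Rat liver receptor preparation and 0.25 nM [3H]prazosin are incubated with compound in 50 mM Tris-HCl (pH 7.4, 0.5 mM EDTA) at 25° C for 60 min. Activity is reported as percent inhibition.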

Where [4] appears, read: compound at 0.03 μM, [3H]Rauwolscine, repeat datapoints each shown.
The mark [5] stands for this setting: compound at 0.1 μM, [3H]MK-912, repeat datapoints each shown.
Setting [6] is: compound at 0.1 μM, [3H]Prazosin, repeat datapoints each shown.
[7] abbreviates: compound at 0.03 μM, [3H]Rauwolscine, repeat assays, each datapoint shown.
Where [8] appears, read: compound at 0.1 μM, [3H]MK-912, repeat assays, each datapoint shown.
Where [9] appears, read: compound at 0.1 μM, [3H]Prazosin, repeat assays, each datapoint shown.
The mark [10] stands for this setting: read-out: Percentage inhibition of ligand binding, Adrenergic α2B (0.03 μM), compound at 0.03 μM, [3H]Rauwolscine, repeat datapoints each shown.
Setting [11] is: read-out: Percentage inhibition of ligand binding, Adrenergic α2A (0.1 μM), compound at 0.1 μM, [3H]MK-912, repeat datapoints each shown.
[12] abbreviates: [3H]Prazosin, repeat datapoints each shown.
The mark [13] stands for this setting: compound at 0.1 μM, [3H]MK-912, repeat assays, each datapoint shown, read-out: Percentage inhibition of ligand binding, Adrenergic α2A.

With `Cc1cc(C)c2c(c1)c1c(n2CC(O)c2ccncc2)CCN2CCCC12` (single isomer, unassigned) [II-125a, 2-(8,10-dimethyl-2,3,5,6-tetrahydro-1H-indolizino[7,8-b]indol-7(11cH)-yl)-1-(pyridin-4-yl)ethanol], the “Percentage inhibition of ligand binding, Adrenergic α2B (0.03 μM)” value (“Percentage inhibition … (0.03 μM)” below) in test [1] (setting [4]) was 100%. Also, the “Percentage inhibition of ligand binding, Adrenergic α2A (0.1 μM)” value in test [2] (setting [5]) came to 62%. In addition, the “Percentage inhibition of ligand binding, Adrenergic α1B (0.1 μM)” value in test [3] (setting [6]) is reported as 92%.
Turning to `Cc1cnc2c(c1)c1c(n2CC(O)c2ccncc2)CCNC1` (stereo not shown) [compound 58, 2-(3-methyl-5,6,7,8-tetrahydro-1,6,9-triaza-fluoren-9-yl)-1-pyridin-4-yl-ethanol], in test [1] (setting [7]), the “Percentage inhibition of ligand binding, Adrenergic α2B” value turned out to be 26%. For the same compound, the “Percentage inhibition of ligand binding, Adrenergic α2A” value in test [2] (setting [8]) is −1%. Also, the “Percentage inhibition of ligand binding, Adrenergic α1B” value in test [3] (setting [9]) was 21%.
For `CCC1c2c(c3cc(C)ccc3n2CC(O)c2ccncc2)C2CCN1C2` (single isomer, unassigned) [36b], in that order: −1%, 0% and 11%.
Regarding `Cc1ccc2c(c1)c1c(n2C(C)C(O)c2ccccc2)CCN(C)C1` (single isomer, unassigned) [II-95a, 2-(2,8-dimethyl-1,2,3,4-tetrahydro-pyrido[4,3-b]indol-5-yl)1-phenyl-propan-1-ol], the “Percentage inhibition of ligand binding, Adrenergic α2B” value in test [1] (0.03 μM compound) was found to be 53%. Further, the “Percentage inhibition of ligand binding, Adrenergic α2A” value in test [2] (0.1 μM compound) was 16%. Also, the “Percentage inhibition of ligand binding, Adrenergic α1B” value in test [3] (0.1 μM compound) is on record as 32%.
`Cc1ccc2c(c1)c1c(n2CC(C)(O)c2cccnc2)CNCC1` (single isomer, unassigned) [128a]: the “Percentage inhibition … (0.03 μM)” value in test [1] (setting [4]) is reported as 100%. The negative-log Ki (pKi) was 9.01 in test [1] and 7.01 in test [2]. The inhibition at 0.03 µM was 97% in test [1] (setting [10]); 9% in test [2] (read-out: Percentage inhibition of ligand binding, Adrenergic α2A (0.03 μM), compound at 0.03 μM, [3H]MK-912, repeat datapoints each shown); 14% in test [3] (read-out: Percentage inhibition of ligand binding, Adrenergic α1B (0.03 μM), compound at 0.03 μM, [3H]Prazosin, repeat datapoints each shown). For the same compound, the inhibition at 0.1 µM is 104% in test [1] (read-out: Percentage inhibition of ligand binding, Adrenergic α2B (0.1 μM), compound at 0.1 μM, [3H]Rauwolscine, repeat datapoints each shown); 31% in test [2] (setting [11]); 37% in test [3] (setting [12]). Further, the “Percentage inhibition of ligand binding, Adrenergic α2A (0.1 μM)” value in test [2] (setting [5]) is 34%. For the same compound, the “Percentage inhibition of ligand binding, Adrenergic α1B (0.1 μM)” value in test [3] (setting [6]) worked out at 45%.
Take `COc1ccc(C(O)Cn2c3c(c4cc(C)ccc42)CCN(C)C3)cc1` (single isomer, unassigned) [20a, 2-(2,6-dimethyl-1,2,3,4-tetrahydro-β-carbolin-9-yl)-1-(4-methoxy-phenyl)-ethanol]: the inhibition at 0.03 µM in test [1] (compound at 0.03 μM, [3H]Rauwolscine, repeat assays, each datapoint shown, read-out: Percentage inhibition of ligand binding, Adrenergic α2B) came out at 28%. Further, the inhibition at 0.1 µM in test [2] (setting [13]) amounted to 29%. For the same compound, the “Percentage inhibition of ligand binding, Adrenergic α1B” value in test [3] (setting [9]) came to 67%.
With `COc1ccc(C(O)Cn2c3c(c4cc(C)ccc42)CN(C)CC3)cn1` (single isomer, unassigned) [51a, 2-(2,8-dimethyl-1,2,3,4-tetrahydro-pyrido[4,3-b]indol-5-yl)-1-(6-methoxy-pyridin-3-yl)-ethanol], in test [1] (setting [7]), the “Percentage inhibition of ligand binding, Adrenergic α2B” value amounted to 21%. In test [2] (setting [8]), the “Percentage inhibition of ligand binding, Adrenergic α2A” value amounted to 11%. Also, in test [3] (setting [9]), the “Percentage inhibition of ligand binding, Adrenergic α1B” value is reported as 8%.
For the compound `Cc1ccc2c(c1)c1c(n2CC(O)c2ccncc2)CCN(C)C1` (single isomer, unassigned) [3a], the “Percentage inhibition of ligand binding, Adrenergic α2B” value in test [1] (setting [7]) was 26% and 30%. The inhibition at 0.1 µM in test [1] (compound at 0.1 μM, [3H]Rauwolscine, repeat assays, each datapoint shown, read-out: Percentage inhibition of ligand binding, Adrenergic α2B) was found to be 62%; in test [2] (setting [13]), 16%. Besides, the pKi in test [1] is 7.56. Besides, the inhibition at 0.03 µM in test [3] (compound at 0.03 μM, [3H]Prazosin, repeat assays, each datapoint shown, read-out: Percentage inhibition of ligand binding, Adrenergic α1B) came to 18%.
As for `Cc1ccc2c(c1)c1c(n2CC(C)(O)c2cnccn2)CCN2CCCC12` (single isomer, unassigned) [176b], in test [1] (setting [4]), the “Percentage inhibition … (0.03 μM)” value was determined as 67%. For the same compound, in test [2] (setting [5]), the “Percentage inhibition of ligand binding, Adrenergic α2A (0.1 μM)” value is 12%. In test [3] (setting [6]), the “Percentage inhibition of ligand binding, Adrenergic α1B (0.1 μM)” value worked out at 41%.
With `Cc1ccc2c(c1)c1c(n2CC(C)(O)c2ccc[nH]c2=O)CCN(C)C1` (stereo not shown) [II-143, 3-(1-(1,2,3,4-tetrahydro-2,8-dimethylpyrido[4,3-b]indol-5-yl)-2-hydroxypropan-2-yl)pyridin-2(1H)-one], the inhibition at 0.03 µM in test [1] (setting [10]) is 22%. For the same compound, the results for the inhibition at 0.1 µM in test [2] (setting [11]) and in test [3] (setting [12]) were -3% and 13%, respectively.
As to `CNC(Cn1c2c(c3cc(C)ccc31)CN(C)CC2)c1ccc(F)cc1` (stereo not shown) [II-12, 2-(2,8-dimethyl-3,4-dihydro-1H-pyrido[4,3-b]indol-5(2H)-yl)-1-(4-fluorophenyl)-N-methyl ethanamine], the “Percentage inhibition of ligand binding, Adrenergic α2B” value in test [1] (0.03 μM compound) came to 65%. Further, in test [2] (0.1 μM compound), the “Percentage inhibition of ligand binding, Adrenergic α2A” value worked out at 11%. For the same compound, in test [3] (0.1 μM compound), the “Percentage inhibition of ligand binding, Adrenergic α1B” value is listed as 18%.
Take `Cc1ccc2c(c1)c1c(n2CC(N)c2ccc(F)cc2)CCN(C)C1` (stereo not shown) [II-11, 2-(2,8-dimethyl-3,4-dihydro-1H-pyrido[4,3-b]indol-5(2H)-yl)-1-(4-fluorophenyl)ethanamine]: the “Percentage inhibition of ligand binding, Adrenergic α2B” value in test [1] (0.03 μM compound) is 70%. Moreover, in test [2] (0.1 μM compound), the “Percentage inhibition of ligand binding, Adrenergic α2A” value came out at 25%. For the same compound, in test [3] (0.1 μM compound), the “Percentage inhibition of ligand binding, Adrenergic α1B” value was 63%.
Take `CN1CCc2c(c3cc(C(F)(F)F)ccc3n2CC(C)(O)c2cccnc2)C1` (single isomer, unassigned) [174b]: the “Percentage inhibition … (0.03 μM)” value in test [1] (setting [4]) stood at 15%. Also, the “Percentage inhibition of ligand binding, Adrenergic α2A (0.1 μM)” value in test [2] (setting [5]) turned out to be 6%. The “Percentage inhibition of ligand binding, Adrenergic α1B (0.1 μM)” value in test [3] (setting [6]) was determined as 11%.
On to `CN1CCc2c(c3cc(C(F)(F)F)ccc3n2CC(O)c2cccnc2)C1` (single isomer, unassigned) [59b], for which, in test [1] (setting [7]), the “Percentage inhibition of ligand binding, Adrenergic α2B” value turned out to be 31%. For the same compound, the “Percentage inhibition of ligand binding, Adrenergic α2A” value in test [2] (setting [8]) worked out at 12%. Moreover, the “Percentage inhibition of ligand binding, Adrenergic α1B” value in test [3] (setting [9]) is given as 7%.
